Like-named read-outs stand apart in the source and are kept apart here.
Assays:
[1] = molecular target: T1, human Cot catalytic domain (30-397 amino acids) (Homo sapiens, UniProt P41279); test: High Throughput Cot Biochemical Assay (KinEASE TR-FRET); conditions: Cot biochemical HTRF (KinEASE TR-FRET) assay; read-out: IC50 HTRF
T1 construct: Purified recombinant human Cot catalytic domain (30-397 amino acids) was purchased from Cama Biosciences; purchased Cama Biosciences (so in the source)
Outline: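 TR-FRET readout: Eu-labeled phospho-specific antibody binds XL665-tagged STK3 peptide after phosphorylation by Cot (aa 30-397, 5 nM). Conditions: 400 μM ATP, 1 μM peptide, MOPS pH 7.0 buffer with MgOAc, DTT, BSA, NP-40, glycerol; 0.1% DMSO.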

[2] = system: TNFα production in LPS-stimulated human monocytes; test: Cot Monocyte TNFα Cell Based Assay; conditions: Homo sapiens, Monocyte, read-out: EC50 TNF
Outline: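 TR-FRET read-out of total secreted TNFα, normalized as % control (unstimulated = 0%, LPS-stimulated = 100%). Cells (5,000/well) were exposed to compound 1 h at 37 °C, then to 50 pg/ml LPS for a further 4 h.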

[3] = TNFα in LPS-stimulated human monocytes

T1 sequence (P41279 30-397): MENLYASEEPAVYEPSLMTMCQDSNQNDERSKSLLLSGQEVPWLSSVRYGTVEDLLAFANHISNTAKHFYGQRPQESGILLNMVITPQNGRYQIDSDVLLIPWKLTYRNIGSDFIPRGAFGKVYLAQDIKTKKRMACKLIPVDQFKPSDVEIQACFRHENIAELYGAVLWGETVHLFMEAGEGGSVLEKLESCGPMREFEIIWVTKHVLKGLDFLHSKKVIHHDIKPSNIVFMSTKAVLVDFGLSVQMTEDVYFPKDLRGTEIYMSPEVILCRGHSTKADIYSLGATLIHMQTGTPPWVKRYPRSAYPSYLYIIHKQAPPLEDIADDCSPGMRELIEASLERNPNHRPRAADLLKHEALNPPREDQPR

| Compound | IC50 [1] | EC50 [2, 3] | EC50 [2] |
| --- | --- | --- | --- |
| N#Cc1cnc2c(Cl)cc(N[C@@H](c3ccccc3)c3cn(CCCN4CCCC4)nn3)cc2c1Nc1c(F)cc(F)cc1F [Example 472, (S)-8-chloro-6-((phenyl(1-(3-(pyrrolidin-1-yl)propyl)-1H-1,2,3-triazol-4-yl)methyl)amino)-4-((2,4,6-trifluorophenyl)amino) quinoline-3-carbonitrile] | 96 nM | 2360 nM |  |
| CC(C)(C)N1CCC(n2cc([C@@H](Nc3cc(Cl)c4ncc(C#N)c(Nc5c(F)cc(F)cc5F)c4c3)c3ccccc3)nn2)CC1 [Example 473, (S)-6-(((1-(1-(tert-butyl)piperidin-4-yl)-1H-1,2,3-triazol-4-yl)(phenyl)methyl)amino)-8-chloro-4-((2,4,6-trifluorophenyl)amino) quinoline-3-carbonitrile] | 59 nM | 784 nM |  |
| CC(C)(C)CCNc1c(C#N)cnc2c(Cl)cc(N[C@@H](c3ccccc3)c3cn(C4CCN(C(C)(C)C)CC4)nn3)cc12 [Example 474, (S)-6-(((1-(1-(tert-butyl)piperidin-4-yl)-1H-1,2,3-triazol-4 yl)(phenyl)methyl)amino)-8-chloro-4-((3,3-dimethylbutyl)amino) quinoline-3-carbonitrile] | 68 nM | 1570 nM |  |
| Cn1cc(CNc2c(C#N)cnc3c(Cl)cc(N[C@@H](c4ccccc4)c4cn(C5CCN(C(C)(C)C)CC5)nn4)cc23)cn1 [Example 475, (S)-6-(((1-(1-(tert-butyl)piperidin-4-yl)-1H-1,2,3-triazol-4-yl)(phenyl)methyl)amino)-8-chloro-4-(((1-methyl-1H-pyrazol-4-yl)methyl)amino)quinoline-3-carbonitrile] | 459 nM | > 10000 nM |  |
| Cn1ccc(CNc2c(C#N)cnc3c(Cl)cc(N[C@@H](c4ccccc4)c4cn(C5CCN(C(C)(C)C)CC5)nn4)cc23)n1 [Example 476, (S)-6-(((1-(1-(tert-butyl)piperidin-4-yl)-1H-1,2,3-triazol-4-yl)(phenyl)methyl)amino)-8-chloro-4-(((1-methyl-1H-pyrazol-3-yl)methyl)amino)quinoline-3-carbonitrile] | 1740 nM | > 10000 nM |  |
| Cn1nccc1CNc1c(C#N)cnc2c(Cl)cc(N[C@@H](c3ccccc3)c3cn(C4CCN(C(C)(C)C)CC4)nn3)cc12 [Example 477, (S)-6-(((1-(1-(tert-butyl)piperidin-4-yl)-1H-1,2,3-triazol-4-yl)(phenyl)methyl)amino)-8-chloro-4-(((1-methyl-1H-pyrazol-5-yl)methyl)amino)quinoline-3-carbonitrile] | 243 nM | 6650 nM |  |
| Cn1cc(Nc2c(C#N)cnc3c(Cl)cc(N[C@@H](c4ccccc4)c4cn(C5CCN(C(C)(C)C)CC5)nn4)cc23)cn1 [Example 478, (S)-6-(((1-(1-(tert-butyl)piperidin-4-yl)-1H-1,2,3-triazol-4-yl)(phenyl)methyl)amino)-8-chloro-4-((1-methyl-1H-pyrazol-4-yl)amino)quinoline-3-carbonitrile] | 1050 nM | 5530 nM |  |
| CC(C)(C)N1CCC(n2cc([C@@H](Nc3cc(Cl)c4ncc(C#N)c(Nc5cccc6[nH]c(=O)[nH]c56)c4c3)c3ccccc3)nn2)CC1 [Example 479, (S)-6-(((1-(1-(tert-butyl)piperidin-4-yl)-1H-1,2,3-triazol-4-yl)(phenyl)methyl)amino)-8-chloro-4-((2-oxo-2,3-dihydro-1H-benzo[d]imidazol-4-yl)amino) quinoline-3-carbonitrile] | 5280 nM | > 10000 nM |  |
| COc1ncccc1Nc1c(C#N)cnc2c(Cl)cc(N[C@@H](c3ccccc3)c3cn(C4CCN(C(C)(C)C)CC4)nn3)cc12 [Example 480, (S)-6-(((1-(1-(tert-butyl)piperidin-4-yl)-1H-1,2,3-triazol-4-yl)(phenyl)methyl)amino)-8-chloro-4-((2-methoxypyridin-3-yl)amino)quinoline-3-carbonitrile] | 1220 nM | 8510 nM |  |
| CC[C@@H](Nc1c(C#N)cnc2c(Cl)cc(N(CC)[C@@H](c3ccccc3)c3c[nH]nn3)cc12)c1ccccc1 [Example 481, 8-chloro-6-(ethyl((S)-phenyl(1H-1,2,3-triazol-4-yl)methyl)amino)-4-(((R)-1-phenylpropyl)amino) quinoline-3-carbonitrile] | 298 nM | 8800 nM |  |
| Cn1cc(Nc2c(C#N)cnc3c(Cl)cc(N[C@@H](c4ccccc4)c4c[nH]nn4)cc23)ccc1=O [Example 482, (S)-8-chloro-4-((1-methyl-6-oxo-1,6-dihydropyridin-3-yl)amino)-6-((phenyl (1H-1,2,3-triazol-4-yl)methyl)amino)quinoline-3-carbonitrile] | 332 nM | > 10000 nM |  |
| Cn1cc(Nc2c(C#N)cnc3c(Cl)cc(N[C@@H](c4ccccc4)c4cn(C5COC5)nn4)cc23)ccc1=O [Example 483, (S)-8-chloro-4-((1-methyl-6-oxo-1,6-dihydropyridin-3-yl)amino)-6-(((1-(oxetan-3-yl)-1H-1,2,3-triazol-4-yl)(phenyl)methyl)amino) quinoline-3-carbonitrile] | 387 nM | > 10000 nM |  |
| Cn1cc(Nc2c(C#N)cnc3c(Cl)cc(N[C@@H](c4ccccc4)c4cn(C5CCN(C(C)(C)C)CC5)nn4)cc23)ccc1=O [Example 484, (S)-6-(((1-(1-(tert-butyl)piperidin-4-yl)-1H-1,2,3-triazol-4-yl)(phenyl)methyl)amino)-8-chloro-4-((1-methyl-6-oxo-1,6-dihydropyridin-3-yl)amino)quinoline-3-carbonitrile] | 371 nM | > 10000 nM |  |
| C[C@@H](Nc1c(C#N)cnc2c(Cl)cc(N[C@@H](c3ccccc3)c3cn(C4CCN(C(C)(C)C)CC4)nn3)cc12)C(C)(C)C [Example 485, 6-(((S)-(1-(1-(tert-butyl)piperidin-4-yl)-1H-1,2,3-triazol-4-yl)(phenyl)methyl)amino)-8-chloro-4-(((R)-3,3-dimethylbutan-2-yl)amino) quinoline-3-carbonitrile] | 306 nM | 7240 nM |  |
| C[C@H](Nc1c(C#N)cnc2c(Cl)cc(N[C@@H](c3ccccc3)c3cn(C4CCN(C(C)(C)C)CC4)nn3)cc12)C(C)(C)C [Example 486, 6-(((S)-(1-(1-(tert-butyl)piperidin-4-yl)-1H-1,2,3-triazol-4-yl)(phenyl)methyl)amino)-8-chloro-4-(((S)-3,3-dimethylbutan-2-yl)amino)quinoline-3-carbonitrile] | 24 nM | 637 nM |  |
| CC(C)(C)N1CCC(n2cc([C@@H](Nc3cc(Cl)c4ncc(C#N)c(N[C@@H]5CCCc6ccccc65)c4c3)c3ccccc3)nn2)CC1 [Example 487, 6-(((S)-(1-(1-(tert-butyl)piperidin-4-yl)-1H-1,2,3-triazol-4-yl)(phenyl)methyl)amino)-8-chloro-4-(((R)-1,2,3,4-tetrahydronaphthalen-1-yl)amino)quinoline-3-carbonitrile] | 2250 nM | 6780 nM |  |
| CC(C)(C)N1CCC(n2cc([C@@H](Nc3cc(Cl)c4ncc(C#N)c(N[C@H]5CCCc6ccccc65)c4c3)c3ccccc3)nn2)CC1 [Example 488, 6-(((S)-(1-(1-(tert-butyl)piperidin-4-yl)-1H-1,2,3-triazol-4-yl)(phenyl)methyl)amino)-8-chloro-4-(((S)-1,2,3,4-tetrahydronaphthalen-1-yl)amino)quinoline-3-carbonitrile] | 1300 nM | 9010 nM |  |
| CC(C)(C)N1CCC(n2cc([C@@H](Nc3cc(Cl)c4ncc(C#N)c(NC[Si](C)(C)C)c4c3)c3ccccc3)nn2)CC1 [Example 489, (S)-6-(((1-(1-(tert-butyl)piperidin-4-yl)-1H-1,2,3-triazol-4-yl)(phenyl)methyl)amino)-8-chloro-4-(((trimethylsilyl)methyl)amino)quinoline-3-carbonitrile] | 10 nM |  | 184 nM |
| COc1ccc(Nc2c(C#N)cnc3c(Cl)cc(N[C@@H](c4ccccc4)c4c[nH]nn4)cc23)cn1 [Example 490, (S)-8-chloro-4-((6-methoxypyridin-3-yl)amino)-6-((phenyl (1H-1,2,3-triazol-4-yl)methyl)amino) quinoline-3-carbonitrile] | 172 nM | 3190 nM |  |
| COc1ccc(Nc2c(C#N)cnc3c(Cl)cc(N[C@@H](c4ccccc4)c4cn(C5COC5)nn4)cc23)cn1 [Example 491, (S)-8-chloro-4-((6-methoxypyridin-3-yl)amino)-6-(((1-(oxetan-3-yl)-1H-1,2,3-triazol-4-yl)(phenyl)methyl)amino) quinoline-3-carbonitrile] | 123 nM | 3840 nM |  |
| COc1ccc(Nc2c(C#N)cnc3c(Cl)cc(N[C@@H](c4ccccc4)c4cn(C5CCN(C(C)(C)C)CC5)nn4)cc23)cn1 [Example 492, (S)-6-(((1-(1-(tert-butyl)piperidin-4-yl)-1H-1,2,3-triazol-4-yl)(phenyl)methyl)amino)-8-chloro-4-((6-methoxypyridin-3-yl)amino)quinoline-3-carbonitrile] | 65 nM | 966 nM |  |
| N#Cc1cnc2c(Cl)cc(N[C@@H](c3ccc(F)cc3)c3cn(CCF)nn3)cc2c1Nc1cnc(F)c(F)c1 [Example 493, (S)-8-chloro-4-((5,6-difluoropyridin-3-yl)amino)-6-(((1-(2-fluoroethyl)-1H-1,2,3-triazol-4-yl)(4-fluorophenyl)methyl)amino) quinoline-3-carbonitrile] | 18 nM | 1220 nM |  |

— patent US10316017B2, “COT modulators and methods of use thereof” (Gilead Sciences, Inc., priority 2015, dated 2019)
